Source: US9737498B2, “Method for treating an inflammation or lesion caused by a virus” (priority 2001, dated 2017)
Read-outs that look alike come from different tables or passages of the source.

Legend:
[1] = system: Herpes simplex virus 1 (HSV-1); experiment: Growth inhibition of HSV-1 in vitro (Vero cells, cytopathic effect / plaques); assay type: cell-based; conditions: for Upper pH limit at which HSV-1 is inactivated by the alcohol: alcohol 0.2% by volume, pH adjusted with HCl, tested pH 4.0 to 6.8 at increments of 0.2, incubated with the virus for 2 minutes; for Virus growth (HSV-1): pH 3.5 (HCl)
[2] = system: "enveloped" viruses (herpesvirus, orthomyxovirus and rhabdovirus (Rabies virus)); conditions: room temperature, aqueous solutions of pure acids; cited from earlier work
[3] = system: naked viruses (e.g., poliovirus type 1); conditions: alcohol alone; cited from earlier work
rhinoviruses = conditions: foams; cited from earlier work
[4] = system: VSV (a lipid-coated virus); conditions: cited from earlier work

## CCC(O)CO (stereo not drawn) [1,2-butanediol]
[1]
  Upper pH limit at which HSV-1 is inactivated by the alcohol: 4.2

## CC(O)C(C)O (stereo not drawn) [2,3-butanediol]
[1]
  Upper pH limit at which HSV-1 is inactivated by the alcohol: 4.6

## O=C(O)CC(O)(CC(=O)O)C(=O)O [citric acid]
[2]
  Effectiveness in vitro against enveloped viruses: effective

## CCO [ethanol]
[3]
  Activity against naked viruses: did not exhibit sufficient activities
[1]; 1.0% ethanol, 5 minute exposure, diluted 1/16 with Eagles medium
  Virus growth (HSV-1): +
[1]; 1.0% ethanol, 5 minute exposure, diluted 1/64 with Eagles medium
  Virus growth (HSV-1): +
[1]; 1.0% ethanol, 5 minute exposure, diluted ¼ with Eagles medium
  Virus growth (HSV-1): +
[1]; 1.0% ethanol, 5 minute exposure, undiluted
  Virus growth (HSV-1): +
[1]; 1.0% ethanol, 10 minute exposure, diluted 1/16 with Eagles medium
  Virus growth (HSV-1): +
[1]; 1.0% ethanol, 10 minute exposure, diluted 1/64 with Eagles medium
  Virus growth (HSV-1): +
[1]; 1.0% ethanol, 10 minute exposure, diluted ¼ with Eagles medium
  Virus growth (HSV-1): +
[1]; 1.0% ethanol, 10 minute exposure, undiluted
  Virus growth (HSV-1): −
[1]; 2.5% ethanol solution diluted by ¼, pH 3.5, exposure time 10 minutes
  Inhibition of growth of the virus (HSV-1): effectively inhibited growth of the virus
[1]; 2.5% ethanol, 5 minute exposure, diluted 1/16 with Eagles medium
  Virus growth (HSV-1): +
[1]; 2.5% ethanol, 5 minute exposure, diluted 1/64 with Eagles medium
  Virus growth (HSV-1): +
[1]; 2.5% ethanol, 5 minute exposure, diluted ¼ with Eagles medium
  Virus growth (HSV-1): +
[1]; 2.5% ethanol, 5 minute exposure, undiluted
  Virus growth (HSV-1): +
[1]; 2.5% ethanol, 10 minute exposure, diluted 1/16 with Eagles medium
  Virus growth (HSV-1): +
[1]; 2.5% ethanol, 10 minute exposure, diluted 1/64 with Eagles medium
  Virus growth (HSV-1): +
[1]; 2.5% ethanol, 10 minute exposure, diluted ¼ with Eagles medium
  Virus growth (HSV-1): −
[1]; 2.5% ethanol, 10 minute exposure, undiluted
  Virus growth (HSV-1): −
[1]; 5.0% ethanol, 5 minute exposure, diluted 1/16 with Eagles medium
  Virus growth (HSV-1): +
[1]; 5.0% ethanol, 5 minute exposure, diluted 1/64 with Eagles medium
  Virus growth (HSV-1): +
[1]; 5.0% ethanol, 5 minute exposure, diluted ¼ with Eagles medium
  Virus growth (HSV-1): +
[1]; 5.0% ethanol, 5 minute exposure, undiluted
  Virus growth (HSV-1): +
[1]; 5.0% ethanol, 10 minute exposure, diluted 1/16 with Eagles medium
  Virus growth (HSV-1): +
[1]; 5.0% ethanol, 10 minute exposure, diluted 1/64 with Eagles medium
  Virus growth (HSV-1): +
[1]; 5.0% ethanol, 10 minute exposure, diluted ¼ with Eagles medium
  Virus growth (HSV-1): −
[1]; 5.0% ethanol, 10 minute exposure, undiluted
  Virus growth (HSV-1): −
[1]; 10% ethanol, 5 minute exposure, diluted 1/16 with Eagles medium
  Virus growth (HSV-1): +
[1]; 10% ethanol, 5 minute exposure, diluted 1/64 with Eagles medium
  Virus growth (HSV-1): +
[1]; 10% ethanol, 5 minute exposure, diluted ¼ with Eagles medium
  Virus growth (HSV-1): +
[1]; 10% ethanol, 5 minute exposure, undiluted
  Virus growth (HSV-1): +
[1]; 10% ethanol, 10 minute exposure, diluted 1/16 with Eagles medium
  Virus growth (HSV-1): +
[1]; 10% ethanol, 10 minute exposure, diluted 1/64 with Eagles medium
  Virus growth (HSV-1): +
[1]; 10% ethanol, 10 minute exposure, diluted ¼ with Eagles medium
  Virus growth (HSV-1): −
[1]; 10% ethanol, 10 minute exposure, undiluted
  Virus growth (HSV-1): −
[1]; 12.5% ethanol solution, pH 3.5, exposure time of five minutes
  Inhibition of the virus (HSV-1): inhibited the virus
[1]; 12.5% ethanol, 5 minute exposure, diluted 1/16 with Eagles medium
  Virus growth (HSV-1): +
[1]; 12.5% ethanol, 5 minute exposure, diluted 1/64 with Eagles medium
  Virus growth (HSV-1): +
[1]; 12.5% ethanol, 5 minute exposure, diluted ¼ with Eagles medium
  Virus growth (HSV-1): −
[1]; 12.5% ethanol, 5 minute exposure, undiluted
  Virus growth (HSV-1): −
[1]; 12.5% ethanol, 10 minute exposure, diluted 1/16 with Eagles medium
  Virus growth (HSV-1): −
[1]; 12.5% ethanol, 10 minute exposure, diluted 1/64 with Eagles medium
  Virus growth (HSV-1): +
[1]; 12.5% ethanol, 10 minute exposure, diluted ¼ with Eagles medium
  Virus growth (HSV-1): −
[1]; 12.5% ethanol, 10 minute exposure, undiluted
  Virus growth (HSV-1): −
[1]
  Upper pH limit at which HSV-1 is inactivated by the alcohol: 4.4
rhinoviruses
  Effectiveness in killing rhinoviruses: not effective
[4]; pH of about 4 to 5 at 4° C., aqueous solution of biologically active protein
  Virucidal activity against VSV: fairly inactive

## O=C(O)CO [glycolic acid]
[1]; aqueous acid solution pH 3.8, exposure of 4 minutes, dilution 1/16
  Virus growth at sample dilution (HSV-1): −
[1]; aqueous acid solution pH 3.8, exposure of 4 minutes, dilution 1/64
  Virus growth at sample dilution (HSV-1): −
[1]; aqueous acid solution pH 3.8, exposure of 4 minutes, dilution ¼
  Virus growth at sample dilution (HSV-1): −
[1]; aqueous acid solution pH 3.8, exposure of 4 minutes, undiluted
  Virus growth at sample dilution (HSV-1): −
[1]; aqueous acid solution pH 4.0, exposure of 4 minutes, dilution 1/16
  Virus growth at sample dilution (HSV-1): +
[1]; aqueous acid solution pH 4.0, exposure of 4 minutes, dilution 1/64
  Virus growth at sample dilution (HSV-1): +
[1]; aqueous acid solution pH 4.0, exposure of 4 minutes, dilution ¼
  Virus growth at sample dilution (HSV-1): +
[1]; aqueous acid solution pH 4.0, exposure of 4 minutes, undiluted
  Virus growth at sample dilution (HSV-1): +
[1]; aqueous acid solution pH 4.2, exposure of 4 minutes, dilution 1/16
  Virus growth at sample dilution (HSV-1): +
[1]; aqueous acid solution pH 4.2, exposure of 4 minutes, dilution 1/64
  Virus growth at sample dilution (HSV-1): +
[1]; aqueous acid solution pH 4.2, exposure of 4 minutes, dilution ¼
  Virus growth at sample dilution (HSV-1): +
[1]; aqueous acid solution pH 4.2, exposure of 4 minutes, undiluted
  Virus growth at sample dilution (HSV-1): −
[1]; aqueous acid solution pH 6.0, exposure of 4 minutes, dilution 1/16
  Virus growth at sample dilution (HSV-1): +
[1]; aqueous acid solution pH 6.0, exposure of 4 minutes, dilution 1/64
  Virus growth at sample dilution (HSV-1): +
[1]; aqueous acid solution pH 6.0, exposure of 4 minutes, dilution ¼
  Virus growth at sample dilution (HSV-1): +
[1]; aqueous acid solution pH 6.0, exposure of 4 minutes, undiluted
  Virus growth at sample dilution (HSV-1): +

## O=C(O)CC(O)C(=O)O (stereo not drawn) [malic acid]
[2]
  Effectiveness in vitro against enveloped viruses: effective

## CO [methanol]
[1]
  Upper pH limit at which HSV-1 is inactivated by the alcohol: 4.6

## CCCCO [n-butanol]
[1]
  Upper pH limit at which HSV-1 is inactivated by the alcohol: 4.6

## CCCO [propanol, reference compound]
[3]
  Activity against naked viruses: did not exhibit sufficient activities

## CC(=O)C(=O)O [pyruvic acid]
[2]
  Effectiveness in vitro against enveloped viruses: effective

## O=C(O)CCC(=O)O [succinic acid]
[2]
  Effectiveness in vitro against enveloped viruses: effective

## butanol [reference compound]
[4]
  Virucidal activity against VSV: fairly inactive
